From PMC2213140 (The Journal of Experimental Medicine, 2005)

Columns and labels:
[1] = test system: Jurkat cells transfected with A2K^b cDNA; assay: In vitro killing assay with CTL from ESO 9V-immunized mice; type: cell-based
[2] = test system: 1G4 CTL clone with peptide-pulsed T2 target cells; type: cell-based; conditions: 30 min at 37°C
[3] = test system: 1G4 CTL clone with peptide-pulsed T2 target cells; assay: Live cell video microscopy of CTL lytic granule polarization; type: cell-based; conditions: T2 cells pulsed with 1 μM peptide
[4] = test system: splenocytes from ESO 9V- or ESO 9C-immunized A2K^b mice; assay: Ex-vivo IFN-γ ELISPOT assay; type: cell-based, mouse; conditions: reducing agent TCEP, unpublished data
[5] = target: HLA-A2 loaded with the wild-type NY-ESO-1 157-165 peptide …; assay: SPR
[6] = target: HLA-A2 loaded with the NY-ESO-1 157-165 analogue peptide …; assay: SPR

| Kd [5] | Kd [6] | Substance | lysis of peptide-loaded target cells by CTL from ESO 9V-immunized mice [1] | granule polarization [2] | rate of lytic granule polarization [3] | time from initial contact to granule polarization at the synapse ([3]; 1 h at 37°C, single CTL followed) | time without polarization of lytic granules toward either target ([3]; second CTL (red arrow)) | effect of TCEP on IFN-γ responses to ESO 9C peptide [4] |
| --- | --- | --- | --- | --- | --- | --- | --- | --- |
| – | – | SLLMWITQC [ESO 9C] | capable of lysing target cells loaded with wild-type ESO 9C peptide | polarization was poor | lytic granule polarization is slow | ≤ 17 min | > 22 min | responses were enhanced in the presence of the reducing agent TCEP |
| 13.3 µM | 5 µM | soluble 1G4 TCR (NY-ESO-1 157-165-specific TCR from the 1G4 CTL clone) | – | – | – | – | – | – |
